# Where two headings read alike, the source gives them in different places.
# Experiments:
# [1] = Metabolic stability in human liver microsomes; assay type: in vitro ADME; settings: both sexes, human
# Protocol: 9. Metabolic Stability in Human Liver Microsomes
# The objective of this study was to determine the metabolic stability of 3 test articles (EN300- […]
# in human liver microsomes at five-time points over 40 minutes using HPLC-MS. Metabolic stability is defined as the percentage of parent compound lost over time in the presence of a metabolically active test system.
# Potassium phosphate monobasic (Bio-Basic, Canada; Lot #N9016010)
# Potassium phosphate dibasic (Bio-Basic, Canada; Lot #MA7100050) […]
# Glucose-6-phosphate dehydrogenase from baker's yeast, type XV (Sigma-Aldrich, USA; Cat […]
# D-Glucose-6-phosphate sodium salt (Sigma-Aldrich, USA; Cat #G7879-1G)
# NADPH tetrasodium salt (BLD Pharmatech Ltd., Cat #BD116582)
# Verapamil hydrochloride (Sigma Aldrich, USA; Cat #V4629)
# Niclosamide (Sigma-Aldrich, USA; Cat #N3510)
# DMSO stock solutions of the tested compounds 20 mM
# Gradient HPLC system (Shimadzu)
# Triple quadrupole mass-detector API 3000 with TurboIonSpray Ion Source (AB Sciex, Canada) […]
# Multichannel pipettors 1-30 µL, 2-125 µL, 30-850 µL (Thermo Scientific) […]
# All measurements were performed using the Shimadzu HPLC system including vacuum degasser, gradient pumps, reverse phase HPLC column, column oven, and autosampler. Mass spectrometric analysis was performed using an API 3000 mass spectrometer from Applied Biosystems/MDS Sciex (AB Sciex) with Turbo V ion source and TurboIonspray interface. The […]
# and system control were performed using Analyst 1.6.3 software from AB Sciex.
# Microsomal incubations were carried out in 96-well plates in 5 aliquots of 30 μL each (one for each time point). Liver microsomal incubation medium comprised of phosphate buffer (100 mM, pH 7.4), MgCl2 (3.3 mM), NADPН (3 mM), glucose-6-phosphate (5.3 mM), glucose-6-phosphate dehydrogenase (0.67 units/mL) with 0.42 mg of liver microsomal protein per mL. In the control reactions, the NADPH-cofactor system was substituted with phosphate buffer. Test compounds […]
# 100 rpm. Five-time points over 40 minutes were analyzed. The reactions were stopped by adding 5 volumes of acetonitrile with internal standard to incubation aliquots, followed by protein sedimentation by centrifuging at 5500 rpm for 5 min. Each reaction was performed in duplicates.
# Supernatants were analyzed using the HPLC system coupled with a tandem mass spectrometer.
# The elimination constant (kel), half-life (t1/2), and intrinsic clearance (Clint) were determined in a plot of […] versus time, using linear regression analysis:1
# 1 In order to indicate the quality of the linear regression analysis, the R2 (determination coefficient) values are provided.
# In some cases, the last time point is excluded from the calculations to ensure acceptable logarithmic linearity of decay.
# [2] = test system: Hedgehog signaling pathway; settings: Mus musculus
# [3] = Table S5, 2nd batch
# [4] = Kinetic solubility in phosphate-buffered saline, pH 7.4; assay type: physicochemical; settings: 25 °C, pH 7.4, aqueous buffer, kinetic from dmso stock; for solubility at 2 h: PBS solubility
# Protocol: page 239: 7. […] The data […] analysis software. […] page 240: Methods Kinetic solubility assay was performed according to Enamine's aqueous solubility SOP. Briefly, […] theoretical concentration of 400 μM in duplicates in phosphate-buffered saline pH 7.4 […] The experimental compound dilutions in PBS were further allowed to equilibrate at 25 °C on a thermostatic shaker for two hours and then filtered through HTS filter plates using a vacuum manifold. The filtrates of test […] prepared to theoretical concentrations of 0 μM (blank), 10 μM, 25 μM, 50 μM, 100 μM, and 200 […] Ondansetron was used as a reference compound to control proper assay performance. 200 μL of each sample was transferred to a 96-well plate and measured in the 230-550 nm range with a 5 nm step. The concentrations of compounds in PBS filtrate are calculated using a dedicated Microsoft Excel calculation script. Proper absorbance wavelengths for calculations are selected for each compound manually based on absorbance maximums (absolute absorbance unit values for the minimum and maximum concentration points within the 0 - 3 OD range). Each final dataset is visually evaluated by the operator, and goodness of fit (R2) is calculated for each calibration curve. […] close to the upper limit of the range may have higher actual solubility (e.g. 5'-deoxy-5- fluorouridine). The calibration curves are shown in Appendix*. […] Compound ID PBS solubility, pH 7.4, μM SE […] Ondansetron 128 126 127** 1.1 EN300-7362818 6 6 6 0.2 (Sonidegib) BCHep-Sonidegib (50) 5 3 4 0.9 Table S3. 2nd batch PBS solubility, pH 7.4, μM Compound ID SE […] Ondansetron 124 124 124** 0.1 EN300-45381956 (51) 34 34 34 0.2 *Goodness of fit (R2) in all titration curves as well as the variations between repeat measurements indicates a high quality of the experimental data in the current batch of test articles. **Ondansetron solubility data are consistent with those previously obtained. […]
# in vitro = settings: human; for Papp A→B at 90 min, 10 µM: Caco-2, pH 7.4, Papp (AB); for Papp B→A at 90 min, 10 µM: Caco-2, pH 7.4, Papp (BA)
# [5] = replicate 1, 10 µM, no verapamil
# [6] = replicate 2, 10 µM, no verapamil
compound,measurement,setting,value
Cc1c(C(=O)Nc2ccc(N3C[C@@H](C)O[C@@H](C)C3)nc2)cccc1-c1ccc(OC(F)(F)F)cc1 [Sonidegib],half-life at 2 μM,"[1]; human liver microsomes, pH 7.4, human liver microsomes, read-out: t1/2: experimental half-time of a metabolic decomposition",1.73 h
same,microsomal CLint at 2 μM,"[1]; human liver microsomes, pH 7.4, read-out: CLint: experimental metabolic stability in human liver microsomes",16 µL/min/mg
same,"remaining at 7 min, 2 µM","[1]; liver microsomes, pH 7.4, Table S7, 2nd batch, 7 min, 2 µM",100%
same,"remaining at […], 2 µM","[1]; liver microsomes, pH 7.4, Table S7, 2nd batch, 15 min, 2 µM",94%
same,"remaining at 25 min, 2 µM","[1]; liver microsomes, pH 7.4, Table S7, 2nd batch, 25 min, 2 µM",89%
same,"remaining at 40 min, 2 µM","[1]; liver microsomes, pH 7.4, Table S7, 2nd batch, 2 µM, read-out: % Remaining, Mean of 2",77%
same,"remaining at 40 min, 2 µM","[1]; liver microsomes, pH 7.4, Table S7, 2nd batch, no NADPH, read-out: % Remaining without cofactor, Mean of 2",103%
same,k el at 2 µM,"[1]; liver microsomes, pH 7.4, Table S7, 2nd batch",0.000117 s⁻¹
same,half-life at 2 μM,"[1]; liver microsomes, pH 7.4, Table S7, 2nd batch, read-out: t1/2",1.73 h
same,IC50,"[2]; NIH3T3, read-out: IC50, Hedgehog signaling pathway, mean ± SD from 2 independent experiments, experiment with BCH-Sonidegib (50)",6.4 ± 0.5 nM
same,IC50,"[2]; NIH3T3, read-out: IC50, Hedgehog signaling pathway, reference compound in the experiment with EN300-45381956 (51)",1.46 nM
same,IC50,"[2]; NIH3T3, read-out: pIC50, Hedgehog signaling pathway, experiment with EN300-45381956 (51) (converted), calculated from IC50",1.58 nM
same,D,[3]; incubation 1,5.61E+04
same,D,[3]; incubation 2,5.60E+04
same,D,[3]; incubation 3,6.79E+04
same,solubility kinetic at 2 h,[4],6 µM
same,solubility at 2 h,"[4]; pH 7.4, Incubation 1",6 µM
same,solubility at 2 h,"[4]; pH 7.4, Incubation 2",6 µM
same,solubility at 2 h,"[4]; pH 7.4, Mean",6 µM
same,"efflux ratio at 90 min, 10 µM","in vitro; Caco-2, pH 7.4",0.3
same,"Papp A→B at 90 min, 10 µM","in vitro; Mean, 10 µM, no verapamil",28 nm/s
same,"Papp A→B at 90 min, 10 µM",in vitro; [5],29 nm/s
same,"Papp A→B at 90 min, 10 µM",in vitro; [6],27 nm/s
same,"Papp B→A at 90 min, 10 µM","in vitro; Mean, 10 µM, no verapamil",9 nm/s
same,"Papp B→A at 90 min, 10 µM",in vitro; [5],10 nm/s
same,"Papp B→A at 90 min, 10 µM",in vitro; [6],9 nm/s
same,"recovery at 90 min, 10 µM","in vitro; Caco-2, pH 7.4, Recovery A-B in presence of Verapamil, Mean, with verapamil",65%
same,"recovery at 90 min, 10 µM","in vitro; Caco-2, pH 7.4, Recovery A-B in presence of Verapamil, replicate 1, with verapamil",67%
same,"recovery at 90 min, 10 µM","in vitro; Caco-2, pH 7.4, Recovery A-B in presence of Verapamil, replicate 2, with verapamil",63%
same,"recovery at 90 min, 10 µM","in vitro; Caco-2, pH 7.4, Recovery A-B, Mean, no verapamil",36%
same,"recovery at 90 min, 10 µM","in vitro; Caco-2, pH 7.4, Recovery A-B, replicate 1, no verapamil",35%
same,"recovery at 90 min, 10 µM","in vitro; Caco-2, pH 7.4, Recovery A-B, replicate 2, no verapamil",37%
same,"recovery at 90 min, 10 µM","in vitro; Caco-2, pH 7.4, Recovery B-A in presence of Verapamil, Mean, with verapamil",61%
same,"recovery at 90 min, 10 µM","in vitro; Caco-2, pH 7.4, Recovery B-A in presence of Verapamil, replicate 1, with verapamil",63%
same,"recovery at 90 min, 10 µM","in vitro; Caco-2, pH 7.4, Recovery B-A in presence of Verapamil, replicate 2, with verapamil",60%
same,"recovery at 90 min, 10 µM","in vitro; Caco-2, pH 7.4, Recovery B-A, Mean, no verapamil",45%
same,"recovery at 90 min, 10 µM","in vitro; Caco-2, pH 7.4, Recovery B-A, replicate 1, no verapamil",46%
same,"recovery at 90 min, 10 µM","in vitro; Caco-2, pH 7.4, Recovery B-A, replicate 2, no verapamil",43%
same,logD at 1 h,"physchem; pH 7.4, LogD, pH 7.4",≥ 4.5
same,logD at 1 h,"physchem; pH 7.4, LogD, pH 7.4 (overall of 3 incubations)",≥ 4.5
same,logD at 1 h,"physchem; pH 7.4, logD (7.4): experimental distribution coefficient in n-octanol/phosphate-buffered saline, pH 7.4",≥ 4
